Reference: PMC9953335 (2022)

Assays:
[1] = tested on: hTelo (unlabelled) (DNA, G4) GGGTTAGGGTTAGGGTTAGGG; assay: CD titration; conditions: K+ (50 mM KCl); 10 mM Tris-HCl, pH 7.4, 25 °C; 1-10 equiv compound
[2] = tested on: cKIT1 (unlabelled) (DNA, G4) GGGAGGGCGCTGGGAGGAGGG; assay: CD titration; conditions: K+ (50 mM KCl); 10 mM Tris-HCl, pH 7.4, 25 °C; 1-10 equiv compound

binding [1]	binding [2]	SMILES
yes	yes	CN1[C]N(CCCN2[C]N(C)c3c2c(=O)n(C)c(=O)n3C)c2c1n(C)c(=O)n(C)c2=O.CN1[C]N(CCCN2[C]N(C)c3c2c(=O)n(C)c(=O)n3C)c2c1n(C)c(=O)n(C)c2=O.[Au+].[Au+]
yes	yes	CN1[C]N(CCCN2[C]N(C)c3ccccc32)c2ccccc21.CN1[C]N(CCCN2[C]N(C)c3ccccc32)c2ccccc21.[Au+].[Au+]
